Patent publication US20240252488A1 (KOREA RESEARCH INSTITUTE OF CHEMICAL TECHNOLOGY, priority 2020, published 2024)

Columns and labels:
FADD−/− Jurkat cells = test: Necroptosis inhibition assay, TNF-α-induced necroptosis (CellTiter-Glo 2.0); type: cell-based, human; details: TNF-α 15 ng/mL; for Necroptosis inhibition assay (Rescue %) 1 μM: compound 1 μM; for Necroptosis inhibition assay (Rescue %) 10 μM: compound 10 μM
Method in brief: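 Cmpd 0.1/1/10 μM final, 30 min RT preincubation; TNF-α 15 ng/mL final; 20–24 h, 37° C, 5% CO2. Readout: ATP luminescence (reagent 1:3 in PBS), 0.5 s/well. Cytotoxicity and % necroptosis inhibition calculated from signal.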

MLKL [1] = target: T1, MLKL (Homo sapiens, UniProt Q8NB16); test: MLKL degradation assay in HepG2 cell line (western blot); type: cell-based; parameters: endogenous in cells; host or cells: HepG2 or HaCaT; details: cell line not given; for Degradation assay (Degradation %) 1 μM: compound 1 μM; for Degradation assay (Degradation %) 10 μM: compound 10 μM
T1 sequence (Q8NB16 1-471): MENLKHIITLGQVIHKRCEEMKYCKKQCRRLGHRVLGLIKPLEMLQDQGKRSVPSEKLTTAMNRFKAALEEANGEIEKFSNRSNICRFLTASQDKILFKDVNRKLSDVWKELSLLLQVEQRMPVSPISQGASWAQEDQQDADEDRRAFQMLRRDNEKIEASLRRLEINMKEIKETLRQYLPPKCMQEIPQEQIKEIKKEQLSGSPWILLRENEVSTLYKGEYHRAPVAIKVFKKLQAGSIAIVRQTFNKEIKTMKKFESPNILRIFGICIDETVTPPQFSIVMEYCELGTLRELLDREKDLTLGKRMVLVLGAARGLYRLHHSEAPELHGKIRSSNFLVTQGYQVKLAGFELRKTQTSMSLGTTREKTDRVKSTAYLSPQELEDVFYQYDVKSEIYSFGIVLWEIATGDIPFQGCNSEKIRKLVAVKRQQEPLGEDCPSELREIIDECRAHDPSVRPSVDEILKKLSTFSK
Method in brief: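 HepG2, cpd final 1 or 10 μM, 20-24 h, 37 °C/5% CO2; RIPA lysis, BCA-normalized, 10-15 μg/lane SDS-PAGE, western blot, ECL read-out.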

MLKL [2] = target: T1, MLKL; test: Measurement of binding affinity with MLKL receptor (competitive binding assay, Kd); parameters: made in house; host or cells: HEK 293 cell line (T7 phage in E. coli BL21-derived host is also described)
Method in brief: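 Competitive displacement of MLKL, expressed in HEK 293 cells and DNA-tagged for qPCR, from immobilized ligand on biotin-blocked beads. Compounds were added from 111× DMSO stocks (final DMSO 0.9%). Kinase left in the eluates was quantified by qPCR to give Kd.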

Structure (SMILES) | Necroptosis inhibition assay (Rescue %) 1 μM (FADD−/− Jurkat cells; FADD−/− Jurkat cells) [%] | Necroptosis inhibition assay (Rescue %) 10 μM (FADD−/− Jurkat cells; FADD−/− Jurkat cells) [%] | Degradation assay (Degradation %) 1 μM (MLKL [1]) [%] | Degradation assay (Degradation %) 10 μM (MLKL [1]) [%] | Kd (MLKL [2]) [nM] | Necroptosis inhibition assay (Rescue %) 1 μM (FADD−/− Jurkat cells) [%] | Necroptosis inhibition assay (Rescue %) 10 μM (FADD−/− Jurkat cells) [%] | Necroptosis inhibition assay (Rescue %) 1.1 μM (FADD−/− Jurkat cells; compound 1.1 µM)
Nc1ncc(-c2cnn(C3CCN(C(=O)CCC4CCN(C(=O)CNc5cccc6c5C(=O)N(C5CCC(=O)NC5=O)C6=O)CC4)CC3)c2)nc1C(=O)O[C@@H](C(=O)Nc1ccc(F)cc1)c1ccccc1 (stereo partly drawn) [TDH-421, (R)-2-((4-fluorophenyl)amino)-2-oxo-1-phenylethyl 3-amino-6-(1-(1-(3-(1-((2-(2,6-dioxopiperidin-3-yl)-1,3-dioxoisoindolin-4-yl)glycyl)piperidin-4-yl)propanoyl)piperidin-4-yl)-1H-pyrazol-4-yl)pyrazine-2-carboxylate] | 37.14 | 35.74 | 86.78 | 86.81 | 5.3 |  |  | 
Nc1ncc(-c2cnn(C3CCN(CCCN4CCN(C(=O)c5ccc6c(c5)CN(C5CCC(=O)NC5=O)C6=O)CC4)CC3)c2)nc1C(=O)O[C@@H](C(=O)Nc1ccc(F)cc1)c1ccccc1 (stereo partly drawn) [TDH-530, (R)-2-((4-fluorophenyl)amino)-2-oxo-1-phenylethyl 3-amino-6-(1-(1-(3-(4-(2-(2,6-dioxopiperidin-3-yl)-1-oxoisoindoline-5-carbonyl)piperazin-1-yl)propyl)piperidin-4-yl)-1H-pyrazol-4-yl)pyrazine-2-carboxylate] | 29.18 | 30.78 | 54.30 | 61.10 | 0.21 |  |  | 
Nc1ncc(-c2cnn(C3CCN(C(=O)COCCOCCNc4ccc5c(c4)C(=O)N(C4CCC(=O)NC4=O)C5=O)CC3)c2)nc1C(=O)O[C@@H](C(=O)Nc1ccc(F)cc1)c1ccccc1 (stereo partly drawn) [TDH-105, (R)-2-((4-fluorophenyl)amino)-2-oxo-1-phenylethyl 3-amino-6-(1-(1-(2-(2-(2-((2-(2,6-dioxopiperidin-3-yl)-1,3-dioxoisoindolin-5-yl)amino)ethoxy)ethoxy)acetyl)piperidin-4-yl)-1H-pyrazol-4-yl)pyrazine-2-carboxylate] |  |  | 43.02 | 40.8 | 6.1 | 27.07 | 15.46 | 
Nc1ncc(-c2cnn(C3CCN(C(=O)c4cn(C5CCN(c6cccc7c6C(=O)N(C6CCC(=O)NC6=O)C7=O)CC5)cn4)CC3)c2)nc1C(=O)O[C@@H](C(=O)Nc1ccc(F)cc1)c1ccccc1 (stereo partly drawn) [TDH-364, (R)-2-((4-fluorophenyl)amino)-2-oxo-1-phenylethyl 3-amino-6-(1-(1-(1-(1-(2-(2,6-dioxopiperidin-3-yl)-1,3-dioxoisoindolin-4-yl)piperidin-4-yl)-1H-imidazole-4-carbonyl)piperidin-4-yl)-1H-pyrazol-4-yl)pyrazine-2-carboxylate] |  |  | 72.07 | 65.89 | 5.3 | 22.41 | 17.66 | 
Nc1ncc(-c2cnn(C3CCN(CCCCCCCCCCNC(=O)C4CCN(c5cccc6c5C(=O)N(C5CCC(=O)NC5=O)C6=O)CC4)CC3)c2)nc1C(=O)O[C@@H](C(=O)Nc1ccc(F)cc1)c1ccccc1 (stereo partly drawn) [TDH-156, (R)-2-((4-fluorophenyl)amino)-2-oxo-1-phenylethyl 3-amino-6-(1-(1-(10-(1-(2-(2,6-dioxopiperidin-3-yl)-1,3-dioxoisoindolin-4-yl)piperidine-4-carboxamido)decyl)piperidin-4-yl)-1H-pyrazol-4-yl)pyrazine-2-carboxylate] |  |  | 31.35 | 18.75 | 53 | 19.9 | 21.77 | 
Nc1ncc(-c2cnn(C3CCN(C(=O)CC4CCN(C(=O)CNc5cccc6nnn(C7CCC(=O)NC7=O)c(=O)c56)CC4)CC3)c2)nc1C(=O)O[C@@H](C(=O)Nc1ccc(F)cc1)c1ccccc1 (stereo partly drawn) [TDH-411, (R)-2-((4-fluorophenyl)amino)-2-oxo-1-phenylethyl 3-amino-6-(1-(1-(2-(1-((3-(2,6-dioxopiperidin-3-yl)-4-oxo-3,4-dihydrobenzo[d][1,2,3]triazin-5-yl)glycyl)piperidin-4-yl)acetyl)piperidin-4-yl)-1H-pyrazol-4-yl)pyrazine-2-carboxylate] | 9.91 | 10.81 | 53.86 | 44.78 | 5.7 |  |  | 
Nc1ncc(-c2cnn(C3CCN(CCC4CCN(C(=O)C5CCN(c6ccc7nnn(C8CCC(=O)NC8=O)c(=O)c7c6)CC5)CC4)CC3)c2)nc1C(=O)OC(C(=O)Nc1ccc(F)cc1)c1ccccc1 (stereo not drawn) [TDH-290, 2-((4-fluorophenyl)amino)-2-oxo-1-phenylethyl 3-amino-6-(1-(1-(2-(1-(1-(3-(2,6-dioxopiperidin-3-yl)-4-oxo-3,4-dihydrobenzo[d][1,2,3]triazin-6-yl)piperidine-4-carbonyl)piperidin-4-yl)ethyl)piperidin-4-yl)-1H-pyrazol-4-yl)pyrazine-2-carboxylate] |  |  | 56.44 | 44.97 | 5.3 | 90.57 | 84.93 | 
Nc1ncc(-c2cnn(C3CCN(CCCN4CCN(C(=O)CNc5ccc6c(c5)C(=O)N(C5CCC(=O)NC5=O)C6=O)CC4)CC3)c2)nc1C(=O)O[C@@H](C(=O)Nc1ccc(F)cc1)c1ccccc1 (stereo partly drawn) [TDH-357, (R)-2-((4-fluorophenyl)amino)-2-oxo-1-phenylethyl 3-amino-6-(1-(1-(3-(4-((2-(2,6-dioxopiperidin-3-yl)-1,3-dioxoisoindolin-5-yl)glycyl)piperazin-1-yl)propyl)piperidin-4-yl)-1H-pyrazol-4-yl)pyrazine-2-carboxylate] |  |  | 84.79 | 76.36 | 0.55 |  |  | 82.13 (1.1µM) %
Nc1ncc(-c2cnn(C3CCN(CCC4CCN(C(=O)Cc5cccc(NC6=CC(=O)N(C7CCC(=O)NC7=O)C6=O)c5)CC4)CC3)c2)nc1C(=O)O[C@@H](C(=O)Nc1ccc(F)cc1)c1ccccc1 (stereo partly drawn) [TDH-518, (R)-2-((4-fluorophenyl)amino)-2-oxo-1-phenylethyl 3-amino-6-(1-(1-(2-(1-(2-(3-((1-(2,6-dioxopiperidin-3-yl)-2,5-dioxo-2,5-dihydro-1H-pyrrol-3-yl)amino)phenyl)acetyl)piperidin-4-yl)ethyl)piperidin-4-yl)-1H-pyrazol-4-yl)pyrazine-2-carboxylate] | 12.44 | −8.57 | 89.77 | 88.59 | 4.3 |  |  | 
Nc1ncc(-c2cnn(C3CCN(CCCN4CCN(C(=O)c5ccc6c(N7CCC(=O)NC7=O)coc6c5)CC4)CC3)c2)nc1C(=O)O[C@@H](C(=O)Nc1ccc(F)cc1)c1ccccc1 [TDH-551, (R)-2-((4-fluorophenyl)amino)-2-oxo-1-phenylethyl 3-amino-6-(1-(1-(3-(4-(3-(2,4-dioxotetrahydropyrimidin-1(2H)-yl)benzofuran-6-carbonyl)piperazin-1-yl)propyl)piperidin-4-yl)-1H-pyrazol-4-yl)pyrazine-2-carboxylate] | 40.61 | 10.85 | 88.03 | 83.80 | 0.3 |  |  | 
Nc1ncc(-c2cnn(C3CCN(C(=O)CCC4CCN(C(=O)COc5cccc6c5C(=O)N(C5CCC(=O)NC5=O)C6=O)CC4)CC3)c2)nc1C(=O)O[C@@H](C(=O)Nc1ccc(F)cc1)c1ccccc1 (stereo partly drawn) [TDH-415, (R)-2-((4-fluorophenyl)amino)-2-oxo-1-phenylethyl 3-amino-6-(1-(1-(3-(1-(2-((2-(2,6-dioxopiperidin-3-yl)-1,3-dioxoisoindolin-4-yl)oxy)acetyl)piperidin-4-yl)propanoyl)piperidin-4-yl)-1H-pyrazol-4-yl)pyrazine-2-carboxylate] | 41.74 | 40.81 | 89.91 | 90.14 | 1.7 |  |  | 
